Experimental data from PubChem BioAssay AID2060614 (Molecular Pharmacology Branch, DTP, NCI, 2025).
Several values for one entry are separate records, joined by “and”; a condition that tells them apart may be missing. Identical values can stand only once.

Test system: 598228-144-R-J1-PDC complex spheroids, viability
Assay: Anticancer human tumor 598228-144-R-J1-PDC patient-derived serous endometrial adenocarcinoma cell line growth inhibition [CLK]
Conditions: for viability, T/C: stronger effect = lower value; active = viability on the fitted dose curve at most 10% of control; inactive = the rest
Method in brief: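 Patient-derived tumor cells grown as complex spheroids with HUVEC endothelial cells and mesenchymal stem cells, treated with drug combinations. Concentrations descend in half-log steps from near clinical Cmax, or from 10 microM if Cmax unknown.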

[1] = curve of first compound, second compound 0.0316 µM
[2] = curve of first compound, second compound 0.1 µM
[3] = curve of first compound, second compound 0.316 µM
[4] = curve of first compound, second compound 1 µM
[5] = curve of first compound, second compound 3.16 µM
[6] = curve of first compound, second compound 10 µM
[7] = second compound 0.0316 µM, first compound 0.0316 µM
[8] = second compound 0.0316 µM, first compound 0.1 µM
[9] = second compound 0.1 µM, first compound 0.0316 µM
[10] = second compound 0.1 µM, first compound 0.1 µM
[11] = second compound 0.316 µM, first compound 0.0316 µM
[12] = second compound 0.316 µM, first compound 0.1 µM
[13] = second compound 1 µM, first compound 0.0316 µM
[14] = second compound 1 µM, first compound 0.1 µM
[15] = second compound 3.16 µM, first compound 0.0316 µM
[16] = second compound 3.16 µM, first compound 0.1 µM
[17] = second compound 10 µM, first compound 0.0316 µM
[18] = second compound 10 µM, first compound 0.1 µM
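Note: spheroids exposed to compounds for seven days before readout.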
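Throughout, for viability, T/C: 100% = DMSO vehicle control wells.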

C#Cc1c(F)ccc2cc(O)cc(-c3ncc4c(N5CC6CCC(C5)N6)nc(OCC56CCCN5CC(F)C6)nc4c3F)c12 (stereo unspecified) + CNC(=O)c1ccc(Nc2nc(OC3CCCC3)c3c(-c4ccc5nc(C)oc5c4)c[nH]c3n2)c(OC)c1
> 10 µM: IC50 [1] | IC50 [2] | IC50 [3] | IC50 [4] | IC50 [5] | IC50 [6]
inactive: viability, T/C [7] 111% | viability, T/C [8] 112% | viability, T/C (second compound 0.0316 µM, first compound 0.316 µM) 117% | viability, T/C (second compound 0.0316 µM, first compound 1 µM) 125% | viability, T/C (second compound 0.0316 µM, first compound 3.16 µM) 99.5% | viability, T/C (second compound 0.0316 µM, first compound 10 µM) 94.1% | viability, T/C [9] 99.7% | viability, T/C [10] 104% | viability, T/C (second compound 0.1 µM, first compound 0.316 µM) 109% | viability, T/C (second compound 0.1 µM, first compound 1 µM) 102% | viability, T/C (second compound 0.1 µM, first compound 3.16 µM) 98.1% | viability, T/C (second compound 0.1 µM, first compound 10 µM) 88.3% | viability, T/C [11] 120% | viability, T/C [12] 102% | viability, T/C (second compound 0.316 µM, first compound 0.316 µM) 132% | viability, T/C (second compound 0.316 µM, first compound 1 µM) 100% | viability, T/C (second compound 0.316 µM, first compound 3.16 µM) 110% | viability, T/C (second compound 0.316 µM, first compound 10 µM) 90.7% | viability, T/C [13] 101% | viability, T/C [14] 90.3% | viability, T/C (second compound 1 µM, first compound 0.316 µM) 98.3% | viability, T/C (second compound 1 µM, first compound 1 µM) 98.2% | viability, T/C (second compound 1 µM, first compound 3.16 µM) 104% | viability, T/C (second compound 1 µM, first compound 10 µM) 83.3% | viability, T/C [15] 98.5% | viability, T/C [16] 92.5% | viability, T/C (second compound 3.16 µM, first compound 0.316 µM) 81.8% | viability, T/C (second compound 3.16 µM, first compound 1 µM) 83.6% | viability, T/C (second compound 3.16 µM, first compound 3.16 µM) 95.2% | viability, T/C (second compound 3.16 µM, first compound 10 µM) 88.5% | viability, T/C [17] 83.3% | viability, T/C [18] 80.7% | viability, T/C (second compound 10 µM, first compound 0.316 µM) 90.8% | viability, T/C (second compound 10 µM, first compound 1 µM) 81.9% | viability, T/C (second compound 10 µM, first compound 3.16 µM) 102% | viability, T/C (second compound 10 µM, first compound 10 µM) 78.8%

CNC(=O)c1ccc(Nc2nc(OC3CCCC3)c3c(-c4ccc5nc(C)oc5c4)c[nH]c3n2)c(OC)c1
> 10 µM: IC50 (compound alone, run of 09/19/2023)
inactive: viability, T/C (compound 0.0316 µM) 89.3% [middle of 4 runs] | viability, T/C (compound 1 µM) 101% [middle of 12 runs] | viability, T/C (compound 3.16 µM) 94.7% [middle of 12 runs] | viability, T/C (compound 10 µM) 101% [middle of 12 runs]

CC1(C)CCC(CN2CCN(c3ccc(C(=O)NS(=O)(=O)c4ccc(NCC5CCOCC5)c([N+](=O)[O-])c4)c(Oc4cnc5[nH]ccc5c4)c3)CC2)=C(c2ccc(Cl)cc2)C1
inactive: viability, T/C (compound 0.0316 µM) 107% and 88.7% | viability, T/C (compound 0.1 µM) 89.8% and 91.9% | viability, T/C (compound 0.316 µM) 89.7% and 89.9% | viability, T/C (compound 1 µM) 104% and 105% | viability, T/C (compound 3.16 µM) 101% and 94.9% | viability, T/C (compound 10 µM) 32.4% and 26.7%
7.36 µM and 6.72 µM: IC50 (curve of compound)

Cn1ncnc1[C@H]1c2n[nH]c(=O)c3cc(F)cc(c23)N[C@@H]1c1ccc(F)cc1 + CN1CCN(c2cc(C(=O)Nc3cc4cc(-c5cnn(C)c5)ccc4cn3)ccn2)CC1
inactive: viability, T/C (second compound 0.0316 µM, first compound 0.000316 µM) 126% | viability, T/C (second compound 0.0316 µM, first compound 0.001 µM) 119% | viability, T/C (second compound 0.0316 µM, first compound 0.00316 µM) 107% | viability, T/C (second compound 0.0316 µM, first compound 0.01 µM) 113% | viability, T/C [7] 107% | viability, T/C [8] 122% | viability, T/C (second compound 0.1 µM, first compound 0.000316 µM) 117% | viability, T/C (second compound 0.1 µM, first compound 0.001 µM) 125% | viability, T/C (second compound 0.1 µM, first compound 0.00316 µM) 114% | viability, T/C (second compound 0.1 µM, first compound 0.01 µM) 116% | viability, T/C [9] 133% | viability, T/C [10] 129% | viability, T/C (second compound 0.316 µM, first compound 0.000316 µM) 19.3% | viability, T/C (second compound 0.316 µM, first compound 0.001 µM) 19.1% | viability, T/C (second compound 0.316 µM, first compound 0.00316 µM) 16.3% | viability, T/C (second compound 0.316 µM, first compound 0.01 µM) 19% | viability, T/C [11] 18.8% | viability, T/C [12] 16.7%
> 0.1 µM: IC50 [1] | IC50 [2]
active: viability, T/C (second compound 1 µM, first compound 0.000316 µM) 1.63% | viability, T/C (second compound 1 µM, first compound 0.001 µM) 1.39% | viability, T/C (second compound 1 µM, first compound 0.00316 µM) 1.72% | viability, T/C (second compound 1 µM, first compound 0.01 µM) 1.32% | viability, T/C [13] 3.04% | viability, T/C [14] 3.99% | viability, T/C (second compound 3.16 µM, first compound 0.000316 µM) 1.68% | viability, T/C (second compound 3.16 µM, first compound 0.001 µM) 3.14% | viability, T/C (second compound 3.16 µM, first compound 0.00316 µM) 1.85% | viability, T/C (second compound 3.16 µM, first compound 0.01 µM) 2.2% | viability, T/C [15] 1.94% | viability, T/C [16] 6.61% | viability, T/C (second compound 10 µM, first compound 0.000316 µM) 1.05% | viability, T/C (second compound 10 µM, first compound 0.001 µM) 2.11% | viability, T/C (second compound 10 µM, first compound 0.00316 µM) 1.83% | viability, T/C (second compound 10 µM, first compound 0.01 µM) 0.71% | viability, T/C [17] 3.42% | viability, T/C [18] 4.51%
< 0.000316 µM: IC50 [3] | IC50 [4] | IC50 [5] | IC50 [6]
